Where a name gives a salt, the structure may show the parent alone. Read-outs that look alike come from different tables or passages of the source.
Legend:
Assay type in all cases: biochemical
human ENPP2 = human ENPP2 (Homo sapiens (Human), UniProt Q13822); assay: Inhibitory activity on human ENPP2 (FS-3 assay)
Procedure: Two-fold dilution of each test compound solution (10 μM, 100% dimethyl sulfoxide) is carried out on 96-well V bottom plate (Costar 3363). After ten-fold dilution of each the test compound solution (100% dimethyl sulfoxide) with deionized distilled water, 10 μL of the diluted each mpound solution (10% dimethyl sulfoxide) was aliquoted to a black flat bottom 96-well plate (Costar 3915).

[1] = test system: LPA production in blood serum caused by autotoxin; assay: Inhibitory activity on LPA production in mouse blood serum; settings: mouse blood serum (m), 18:1 LPC, 3 hours at 37° C.
Procedure: After 100-fold dilution of each test compound solution (5 μL) (10 mM, 100%, dimethyl sulfoxide) with 495 μL of methanol, 3 μL of the diluted methanol solution (1% dimethyl sulfoxide) was mixed with 57 μL of human or mouse blood serum solution in a 1.5 mL tube. […] Subsequently, a solution prepared by diluting 10 mg/mL 18:1 LPC solution (50% ethanol) with blood serum to have concentration of 375 μg/mL was aliquoted in an amount of 2 μL to each tube so as to have 50 μL. Each tube was kept for 3 hours in a water bath at 37° C. to allow a reaction. To the tube obtained after the reaction, 100 μL of 0.5 μM 17:0 LPA solution (chloroform/methanol/water=65/35/8) was aliquoted and mixed therein. Centrifuge was carried out for 10 minutes using a centrifuge at conditions of 14,000 rpm and 4° C. 100 μL of 50% methanol solution is aliquoted first to a 96-well polypropylene plate (Agilent Technology 5042-1385), and the supernatant (50 μL) in a tube after the centrifuge was carefully transferred to the plate followed by mixing. After covering it with Well cap (Thermo 276011), analysis was carried out by LC-MS/MS (Agilent 1260).
In the following Table 3, the mouse blood serum was described as (m) and human blood serum was described as (h).

human ATX = human ATX (Homo sapiens (Human), UniProt Q13822); assay: Bis-pNPP assay; settings: bis-pNPP substrate, read-out: Enzymatic assay (IC50) bis-pNPP
Procedure: Eight-fold dilution of each test compound solution (10 μM, 100% dimethyl sulfoxide) is carried out on 96-well V bottom plate (Costar 3363). After […] of each test compound solution (100% dimethyl sulfoxide) with deionized distilled water, 10 μL of the diluted each test compound solution (10% dimethyl sulfoxide) was aliquoted to a black flat bottom 96-well plate (Costar 3915). 50 μL of 60 mM Tris-HCl (pH9.0) buffer was added thereto, and subsequently 20 μL of 3.75 nM human ATX solution (buffer solution: 50 mM Tris-HCl (pH8.5), 5 mM CaCl2, 2.5 mM MgCl2, 0.01% Brij35) and 20 μL of 25 mM Bis-pNPP (bis(p-Nitrophenyl)-phosphate sodium salt) solution (buffer solution: 50 mM Tris-HCl (pH9.0)) were added thereto, respectively, followed by mixing. […] Furthermore, IC50 values that are shown in Table 3 were calculated using Grafit5 Software based on the inhibitory activity percentage ratio.

[2] = human ENPP2, FS-3 substrate, 30 min at 37° C., read-out: IC50
[3] = FS-3 assay, same process as Test example 1, read-out: Enzymatic assay (IC50) FS-3

Compound O=C(CCN1CCc2[nH]nnc2C1)N1CCN(c2cnc(NC3Cc4ccccc4C3)nc2)CC1 [Compound 12, 1-(4-{2-[(2,3-dihydro-1H-inden-2-yl)amino]pyrimidin-5-yl}piperazin-1-yl)-3-{1H,4H,5H,6H,7H-[1,2,3]triazolo[4,5-c]pyridin-5-yl}propan-1-one] has an IC50 (human ENPP2; [2]) of 3.2 nM and an IC50 [1] of 11 nM.
With O=C(Cn1cc(-c2cnc(NC3Cc4ccccc4C3)nc2)c(CN2CCNCC2)n1)N1CCc2[nH]nnc2C1 [Compound 89, 2-(4-{2-[(2,3-dihydro-1H-inden-2-yl)amino]pyrimidin-5-yl}-3-(piperazin-1-ylmethyl)-1H-pyrazol-1-yl)-1-{1H,4H,5H,6H,7H-[1,2,3]triazolo[4,5-c]pyridin-5-yl}ethan-1-one] the IC50 (human ENPP2; [2]) was 4.2 nM and the IC50 [1] was 21 nM.
For O=C(Cc1cn(-c2ccc(Cl)cc2)c(-c2cnc(NC3Cc4ccccc4C3)nc2)n1)N1CCc2[nH]nnc2C1 [Compound 117, 2-[1-(4-chlorophenyl)-2-{2-[(2,3-dihydro-1H-inden-2-yl)amino]pyrimidin-5-yl}-1H-imidazol-4-yl]-1-{1H,4H,5H,6H,7H-[1,2,3]triazolo[4,5-c]pyridin-5-yl}ethan-1-one], the IC50 (human ATX) was greater than 100 nM and the IC50 (human ENPP2; [3]) was 1.84 nM.
O=C(NC[C@H]1CN(c2ccc3[nH]c(=O)oc3c2)C(=O)O1)c1cnc(NCc2cccc(OC(F)(F)F)c2)nc1 [Compound 10, N-{[(5S)-2-oxo-3-(2-oxo-2,3-dihydro-1,3-benzoxazol-6-yl)-1,3-oxazolidin-5-yl]methyl}-2-({[3-(trifluoromethoxy)phenyl]methyl}amino)pyrimidine-5-carboxamide] showed an IC50 (human ENPP2; read-out: IC50) of 2.8 nM and an IC50 [1] of 10 nM.
Compound Cc1nc(-c2cnc(NC3Cc4ccccc4C3)nc2)cn1CC(=O)N1CCc2[nH]nnc2C1 [Compound 107, 2-(4-{2-[(2,3-dihydro-1H-inden-2-yl)amino]pyrimidin-5-yl}-2-methyl-1H-imidazol-1-yl)-1-{1H,4H,5H,6H,7H-[1,2,3]triazolo[4,5-c]pyridin-5-yl}ethan-1-one] has an IC50 (human ATX) of 4.87 nM and an IC50 (human ENPP2; [3]) of 1.56 nM.
Work on NC1CCC(c2nn(CC(=O)N3CCc4[nH]nnc4C3)cc2-c2cnc(NC3Cc4ccccc4C3)nc2)CC1 (stereo not shown) [Compound 99, 2-[3-(4-aminocyclohexyl)-4-{2-[(2,3-dihydro-1H-inden-2-yl)amino]pyrimidin-5-yl}-1H-pyrazol-1-yl]-1-{1H,4H,5H,6H,7H-[1,2,3]triazolo[4,5-c]pyridin-5-yl}ethan-1-one] yielded an IC50 (human ATX) of 5.59 nM and an IC50 (human ENPP2; [3]) of 2.8 nM.
NNC(=O)C1=CCN(C(=O)Cc2nnc(-c3cnc(NC4Cc5ccccc5C4)nc3)o2)CC1 [Compound 120, 1-[2-(5-{2-[(2,3-dihydro-1H-inden-2-yl)amino]pyrimidin-5-yl}-1,3,4-oxadiazol-2-yl)acetyl]-1,2,3,6-tetrahydropyridine-4-carbohydrazide Hydrochloride] was tested, and the IC50 (human ATX) was 380 nM and the IC50 (human ENPP2) was 25.9 nM.
O=C(CCN1CCc2[nH]nnc2C1)N1CCC(c2cnc(NC3Cc4ccccc4C3)nc2)CC1 [Compound 14, 1-(4-{2-[(2,3-dihydro-1H-inden-2-yl)amino]pyrimidin-5-yl}piperidin-1-yl)-3-{1H,4H,5H,6H,7H-[1,2,3]triazolo[4,5-c]pyridin-5-yl}propan-1-one] showed an IC50 (human ENPP2; [2]) of 2.4 nM and an IC50 [1] of 8 nM.
Compound CC(C)(CN1CCc2[nH]nnc2C1)C(=O)N1CCN(c2cnc(NC3Cc4ccccc4C3)nc2)CC1 [Compound 19, 1-(4-{2-[(2,3-dihydro-1H-inden-2-yl)amino]pyrimidin-5-yl}piperazin-1-yl)-2,2-dimethyl-3-{1H,4H,5H,6H,7H-[1,2,3]triazolo[4,5-c]pyridin-5-yl}propan-1-one] has an IC50 (human ENPP2; [2]) of 3.1 nM and an IC50 [1] of 25 nM.
O=C(O)c1ccc(-c2nn(CC(=O)N3CCc4[nH]nnc4C3)cc2-c2cnc(NC3Cc4ccccc4C3)nc2)cc1 [Compound 119, 4-(4-{2-[(2,3-dihydro-1H-inden-2-yl)amino]pyrimidin-5-yl}-1-(2-oxo-2-{1H,4H,5H,6H,7H-[1,2,3]triazolo[4,5-c]pyridin-5-yl}ethyl)-1H-pyrazol-3-yl)benzoic Acid] showed an IC50 (human ATX) of 9.19 nM and an IC50 (human ENPP2; [3]) of less than 1.56 nM.
O=C(CCN1CCc2[nH]nnc2C1)N1CCN(c2cnc(NCc3cccc(OC(F)(F)F)c3)nc2)CC1 [Compound 13, 3-{1H,4H,5H,6H,7H-[1,2,3]triazolo[4,5-c]pyridin-5-yl}-1-{4-[2-({[3(trifluoromethoxy)phenyl]methyl}amino)pyrimidin-5-yl]piperazin-1-yl}propan-1-one] gave an IC50 (human ENPP2; [2]) of 3.7 nM and an IC50 [1] of 13 nM.
With O=C(Cc1nnc(-c2cnc(NCc3cccc(OC(F)(F)F)c3)nc2)o1)N1CCc2[nH]nnc2C1 [Compound 34, 1-{1H,4H,5H,6H,7H-[1,2,3]triazolo[4,5-c]pyridin-5-yl}-2-{5-[2-({[3-(trifluoromethoxy)phenyl]methyl}amino)pyrimidin-5-yl]-1,3,4-oxadiazol-2-yl}ethan-1-one] the IC50 (human ENPP2; [2]) was 2 nM and the IC50 [1] was 52 nM.
In the case of O=C(Cc1nnc(-c2cnc(NC3Cc4ccccc4C3)nc2)o1)N1CCc2[nH]c(=O)[nH]c2C1 [Compound 40, 5-[2-(5-{2-[(2,3-dihydro-1H-inden-2-yl)amino]pyrimidin-5-yl}-1,3,4-oxadiazol-2-yl)acetyl]-1H,2H,3H,4H,5H,6H,7H-imidazo[4,5-c]pyridin-2-one], the IC50 (human ENPP2; [2]) is reported as 10.1 nM.
O=C(Cc1nnc(-c2cnc(NC3Cc4ccccc4C3)nc2)o1)N1CCc2nc[nH]c2C1 [Compound 38, 2-(5-{2-[(2,3-dihydro-1H-inden-2-yl)amino]pyrimidin-5-yl}-1,3,4-oxadiazol-2-yl)-1-{3H,4H,5H,6H,7H-imidazo[4,5-c]pyridin-5-yl}ethan-1-one] gave an IC50 (human ENPP2; [2]) of 4 nM.
Work on O=C(CN1CCc2[nH]nnc2C1)N1CCN(c2cnc(NCc3cccc(OC(F)(F)F)c3)nc2)CC1 [Compound 18] yielded an IC50 (human ENPP2; [2]) of 3.6 nM.
With O=C(CN1CCN(c2cnc(NC3Cc4ccccc4C3)nc2)CC1)N1CCc2[nH]nnc2C1 [Compound 20, 2-(4-{2-[(2,3-dihydro-1H-inden-2-yl)amino]pyrimidin-5-yl}piperazin-1-yl)-1-{1H,4H,5H,6H,7H-[1,2,3]triazolo[4,5-c]pyridin-5-yl}ethan-1-one] the IC50 (human ENPP2; [2]) was 2.6 nM and the IC50 [1] was 29 nM.
For O=C(CN1CCN(c2cnc(NC3Cc4ccccc4C3)nc2)CC1)Nc1ccc2[nH]c(=O)oc2c1 [Compound 27, 2-(4-{2-[(2,3-dihydro-1H-inden-2-yl)amino]pyrimidin-5-yl}piperazin-1-yl)-N-(2-oxo-2,3-dihydro-1,3-benzoxazol-6-yl)acetamide], the IC50 (human ENPP2; [2]) was 2.4 nM and the IC50 [1] was 10 nM.
Compound O=C(CN1CCC(c2cnc(NC3Cc4ccccc4C3)nc2)CC1)N1CCc2[nH]nnc2C1 [Compound 22, 2-(4-{2-[(2,3-dihydro-1H-inden-2-yl)amino]pyrimidin-5-yl}piperidin-1-yl)-1-{1H,4H,5H,6H,7H-[1,2,3]triazolo[4,5-c]pyridin-5-yl}ethan-1-one] has an IC50 (human ENPP2; [2]) of 2.9 nM and an IC50 [1] of 57 nM.
For O=C(NCCC(=O)N1CCc2[nH]nnc2C1)c1cnc(NCc2cccc(OC(F)(F)F)c2)nc1 [Compound 2, N-(3-oxo-3-{1H,4H,5H,6H,7H-[1,2,3]triazolo[4,5-c]pyridin-5-yl}propyl)-2-({[3-(trifluoromethoxy)phenyl]methyl}amino)pyrimidine-5-carboxamide], the IC50 (human ENPP2; [2]) was 2.1 nM and the IC50 [1] was 23 nM.
With O=C(NCC(=O)N1CCc2[nH]nnc2C1)c1cnc(NCc2cccc(OC(F)(F)F)c2)nc1 [Compound 3, N-(2-oxo-2-{1H,4H,5H,6H,7H-[1,2,3]triazolo[4,5-c]pyridin-5-yl}ethyl)-2-({[3-(trifluoromethoxy)phenyl]methyl}amino)pyrimidine-5-carboxamide] the IC50 (human ENPP2; [2]) was 14.3 nM.
Work on O=C(Cn1cc(-c2cnc(NC3Cc4ccccc4C3)nc2)c(CN2CCN(CC(F)F)CC2)n1)N1CCc2[nH]nnc2C1 [Compound 92, 2-(3-{[4-(2,2-difluoroethyl)piperazin-1-yl]methyl}-4-{2-[(2,3-dihydro-1H-inden-2-yl)amino]pyrimidin-5-yl}-1H-pyrazol-1-yl)-1-{1H,4H,5H,6H,7H-[1,2,3]triazolo[4,5-c]pyridin-5-yl}ethan-1-one] yielded an IC50 (human ENPP2; [2]) of 2.3 nM.

Reference: patent US10961242B2, “Compounds as autotaxin inhibitors and pharmaceutical compositions comprising the same” (LegoChem Biosciences, Inc., priority 2018, dated 2021)
